Assay results published in patent US20060264460A1 (Wyeth, priority 2005, published 2006).

target: T1, human Cot/Tpl2 kinase (Homo sapiens, UniProt P41279); assay: Tpl2/Cot kinase assay: GST-MEK1 phosphorylation detected by ELISA (DELFIA Eu); format: biochemical; details: Tpl2/Cot kinase, GST-MEK1 substrate, 50 uM ATP
T1 construct: human Cot/Tpl2 kinase construct encoding residues 30-398; 6His (N); made in house; host or cells: Sf9 insect cells, baculovirus system (BD Biosciences)
Procedure, shortened: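 His-tagged human Tpl2 from Sf9 cells, Ni-affinity and size-exclusion purified (monomer). 0.4 nM Tpl2 with 35 nM GST-MEK1, 50 uM ATP, MOPS pH 7.2, 1% DMSO, 1 h at 30° C; EDTA stop. MEK1 Ser217/221 phosphorylation detected by anti-phospho-MEK1 and Eu-labelled secondary ELISA; IC50 fitted.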

T1 sequence (P41279 30-398): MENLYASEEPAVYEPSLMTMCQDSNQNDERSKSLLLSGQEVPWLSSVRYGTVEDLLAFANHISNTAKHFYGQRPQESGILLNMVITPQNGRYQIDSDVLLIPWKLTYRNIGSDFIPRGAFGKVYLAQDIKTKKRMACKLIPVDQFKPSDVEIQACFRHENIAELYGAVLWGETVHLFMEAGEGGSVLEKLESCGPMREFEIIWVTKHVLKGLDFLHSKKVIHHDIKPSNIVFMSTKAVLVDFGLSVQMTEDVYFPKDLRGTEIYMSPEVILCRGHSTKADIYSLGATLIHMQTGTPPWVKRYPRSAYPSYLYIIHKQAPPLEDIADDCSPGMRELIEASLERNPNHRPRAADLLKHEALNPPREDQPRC

Question: For `CN(C)CCC(c1cccnc1)n1cc(CNc2cc(Cl)c3ncc(C#N)c(Nc4ccc(F)c(Cl)c4)c3c2)nn1` (stereo not drawn) [Example 759], which IC50 is on record?
Answer: 36 nM

Question: `COC(=O)c1cc(Cl)c2ncc(C#N)c(Nc3ccc(F)c(Cl)c3)c2c1` [Example 760] was tested. Which IC50 did it give?
Answer: > 3000 nM

Question: With `CC(c1ccccc1)n1cc(CNc2cc(Cl)c3ncc(C#N)c(Nc4ccc(F)c(Cl)c4)c3c2)nn1` (stereo not drawn) [Example 761] as the compound, how does the IC50 read?
Answer: 96 nM

Question: How did the IC50 turn out when `CC(C)(C)OC(=O)N1CCCN(CCCn2cc(CNc3cc(Br)c4ncc(C#N)c(Nc5ccc(F)c(Cl)c5)c4c3)nn2)CC1` [Example 762] was run?
Answer: 520 nM

Question: `CC(C)(C)OC(=O)N1CCCN(CCCn2cc(CNc3cc(Cl)c4ncc(C#N)c(Nc5ccc(F)c(Cl)c5)c4c3)nn2)CC1` [Example 763] was tested. Which IC50 did it give?
Answer: 120 nM

Question: With `CC(C)(C)OC(=O)N1CCN(CCCn2cc(CNc3cc(Br)c4ncc(C#N)c(Nc5ccc(F)c(Cl)c5)c4c3)nn2)CC1` [Example 764] as the compound, how does the IC50 read?
Answer: 1300 nM

Question: How did the IC50 turn out when `CC(C)(C)OC(=O)N1CCN(CCCn2cc(CNc3cc(Cl)c4ncc(C#N)c(Nc5ccc(F)c(Cl)c5)c4c3)nn2)CC1` [Example 765] was run?
Answer: 230 nM

Question: `N#Cc1cnc2c(Br)cc(NCc3cn(CCCN4CCCNCC4)nn3)cc2c1Nc1ccc(F)c(Cl)c1` [Example 766] was tested. Which IC50 did it give?
Answer: 43 nM

Question: With `N#Cc1cnc2c(Cl)cc(NCc3cn(CCCN4CCCNCC4)nn3)cc2c1Nc1ccc(F)c(Cl)c1` [Example 767] as the compound, how does the IC50 read?
Answer: 74 nM

Question: For `N#Cc1cnc2c(Br)cc(NCc3cn(CCCN4CCNCC4)nn3)cc2c1Nc1ccc(F)c(Cl)c1` [Example 768], which IC50 is on record?
Answer: 110 nM

Question: Which IC50 does the source give for `N#Cc1cnc2c(Cl)cc(NCc3cn(CCCN4CCNCC4)nn3)cc2c1Nc1ccc(F)c(Cl)c1` [Example 769] here?
Answer: 160 nM

Question: `N#Cc1cnc2c(Cl)cc(C(=O)O)cc2c1Nc1ccc(F)c(Cl)c1` [Example 770] was tested. Which IC50 did it give?
Answer: 2400 nM

Question: Which IC50 does the source give for `N#Cc1cnc2c(Cl)cc(NCC(=O)NCc3cccnc3)cc2c1Nc1ccc(F)c(Cl)c1` [Example 771] here?
Answer: 200 nM

Question: With `N#Cc1cnc2c(Cl)cc(NCC(=O)NCc3ccncc3)cc2c1Nc1ccc(F)c(Cl)c1` [Example 772] as the compound, how does the IC50 read?
Answer: 48 nM

Question: With `N#Cc1cnc2c(Cl)cc(NCC(=O)Nc3cccnc3)cc2c1Nc1ccc(F)c(Cl)c1` [Example 773] as the compound, how does the IC50 read?
Answer: 110 nM

Question: How did the IC50 turn out when `N#Cc1cnc2c(Cl)cc(NCC(=O)Nc3ccncc3)cc2c1Nc1ccc(F)c(Cl)c1` [Example 774] was run?
Answer: 2400 nM

Question: How did the IC50 turn out when `CN(C)CCCNC(=O)CNc1cc(Cl)c2ncc(C#N)c(Nc3ccc(F)c(Cl)c3)c2c1` [Example 775] was run?
Answer: > 3000 nM

Question: With `N#Cc1cnc2c(Cl)cc(NCC(=O)NCCCN3CCOCC3)cc2c1Nc1ccc(F)c(Cl)c1` [Example 776] as the compound, how does the IC50 read?
Answer: > 3000 nM

Question: With `N#Cc1cnc2c(Cl)cc(NCC(=O)NCCN3CCOCC3)cc2c1Nc1ccc(F)c(Cl)c1` [Example 777] as the compound, how does the IC50 read?
Answer: 530 nM

Question: With `CN(C)CCNC(=O)CNc1cc(Cl)c2ncc(C#N)c(Nc3ccc(F)c(Cl)c3)c2c1` [Example 778] as the compound, how does the IC50 read?
Answer: 1600 nM

Question: Which IC50 does the source give for `COCCCNC(=O)CNc1cc(Cl)c2ncc(C#N)c(Nc3ccc(F)c(Cl)c3)c2c1` [Example 779] here?
Answer: 230 nM

Question: For `N#Cc1cnc2c(Cl)cc(NCC(=O)NCc3ccccn3)cc2c1Nc1ccc(F)c(Cl)c1` [Example 780], which IC50 is on record?
Answer: 330 nM

Question: Which IC50 does the source give for `CN1CCCC1CCNC(=O)CNc1cc(Cl)c2ncc(C#N)c(Nc3ccc(F)c(Cl)c3)c2c1` (stereo not drawn) [Example 781] here?
Answer: > 3000 nM

Question: Which IC50 does the source give for `N#Cc1cnc2c(Cl)cc(NC3CCCC3Cl)cc2c1Nc1ccc(F)c(Cl)c1` (stereo not drawn) [Example 782] here?
Answer: > 3000 nM

Question: How did the IC50 turn out when `N#Cc1cnc2c(Cl)cc(NCc3cn(CCOC(N)=O)nn3)cc2c1Nc1ccc(F)c(Cl)c1` [Example 784] was run?
Answer: 5.9 nM

Question: For `N#Cc1cnc2c(Br)cc(NCc3cn(Cc4ccccn4)cn3)cc2c1Nc1ccc(F)c(Cl)c1` [Example 785], which IC50 is on record?
Answer: 34 nM

Question: `N#Cc1cnc2c(Cl)cc(NCc3cn(Cc4ccccn4)cn3)cc2c1Nc1ccc(F)c(Cl)c1` [Example 786] was tested. Which IC50 did it give?
Answer: 41 nM

Question: Which IC50 does the source give for `N#Cc1cnc2c(Cl)cc(NCc3cn(Cc4ccncc4)cn3)cc2c1Nc1ccc(F)c(Cl)c1` [Example 787] here?
Answer: 5.3 nM

Question: How did the IC50 turn out when `CN(C)C(=O)Cn1cc(CNc2cc(Cl)c3ncc(C#N)c(Nc4ccc(F)c(Cl)c4)c3c2)nn1` [Example 788] was run?
Answer: 5 nM

Question: Which IC50 does the source give for `CN(C)C(=O)CCn1cc(CNc2cc(Cl)c3ncc(C#N)c(Nc4ccc(F)c(Cl)c4)c3c2)nn1` [Example 789] here?
Answer: 10 nM
